Laboratory results: patent publication US20110039783A1, “PEPTIDE HAVING HYPOTENSIVE ACTIVITY” (DAIICHI SANKYO COMPANY LIMITED, priority 2007, published 2011)
Where no end group is shown, it is not given here. [ ]: non-standard residue; d: D form. Cha = N[C@@H](CC1CCCCC1)C(=O)O

System: blood pressure of anesthetized Sprague-Dawley IGS male rats
Assay: Hypotensive activity in anesthetized rats, invasive blood pressure measurement after intravenous administration
Format: in vivo, rat
Conditions: for Hypotensive activity (dose/rat) 10 nmol / Hypotensive activity (dose/rat) 30 nmol / Hypotensive activity (dose/rat) 100 nmol: anesthetized rats, intravenous; for Hypotensive activity (dose/rat) 10 nmol: 10 nmol/rat; for Hypotensive activity (dose/rat) 30 nmol: 30 nmol/rat; for Hypotensive activity (dose/rat) 100 nmol: 100 nmol/rat; for dose dependence of hypotensive activity: anesthetized rats, 10, 30, 100 nmol/rat
Method: 50 mg/kg pentobarbital sodium was intraperitoneally administered to 8- to 10-week-old Sprague-Dawley IGS male rats (Charles River Laboratories Japan, Inc.) for anesthesia. Thereafter, a tracheal cannula (PE 250), a femoral vein cannula (PE50), and a femoral artery cannula (PESO) were inserted into each rat. The femoral artery cannula was connected with a pressure transducer (PE23XL; manufactured by Nihon Kohden Corporation), and an apparatus formed by incorporating a blood pressure measurement unit (AP-641G; manufactured by Nihon Kohden Corporation) and an instantaneous heart rate measurement unit (AT-601G; manufactured by Nihon Kohden Corporation) into a multi-purpose preamplifier (RP-6004; manufactured by Nihon Kohden Corporation) was used to record the blood pressure and heart rate of each rat. The blood pressure was calibrated using a mercury manometer included in a stand-type electromanometer (MP-25S; manufactured by Nihon Kohden Corporation). The recording paper was adjusted, such that 10 mm or 20 mm on the recording paper corresponded to 100 mmHg.
Each peptide was dissolved in a concentration of 1 mM or 10 mM in a 0.1% acetic acid solution to prepare a peptide solution. Thereafter, depending on dose, it was diluted with a normal saline containing 0.1% bovine serum albumin (Fr.V). In the case of the dose of 10 nmol/rat, a 1 mM peptide solution was 10 times diluted, and 100 μl of the diluted solution was administered. In the case of the dose of 30 nmol/rat, a 1 mM peptide solution was 10 times diluted, and 300 μL, of the diluted solution was administered. In the case of the dose of 100 nmol/rat, a 10 mM peptide solution was 10 times diluted, and 100 μL of the diluted solution was administered. Each peptide was intravenously administered via the femoral vein cannula, and the systolic blood pressure, diastolic blood pressure, and heart rate were then measured.
Various HC021 derivative peptides were synthesized in accordance with Example 1, and such peptide was then administered to each rat at a dose of 10 nmol/rat, 30 nmol/rat, or 100 mol/rat by the method described in Example 2. Thereafter, the hypotensive activity of each derivative peptide was measured. […] The strength of such activity was determined using a median of activity in repeated experiments. In addition, in order to make a comparison among the activities of various derivative peptides, the strength of hypotensive activity was defined as follows.
Strength of Hypotensive Activity
Extremely strong activity (+++): A decrease in systolic blood pressure is 30 mmHg or more, and the time required for recovery is 5 minutes or more.
Strong activity (++): A decrease in systolic blood pressure is 20 mmHg or more and less than 30 mmHg, or the time required for recovery is less than 5 minutes.
Activity observed (+): A decrease in systolic blood pressure is less than 20 mmHg.
Activity not observed (−)
Various HC021 peptide sequence-substituted products were synthesized in accordance with Example 1, and their hypotensive activity was then measured according to the method of Example 3.

| Substance | Hypotensive activity (dose/rat) 10 nmol (Table 3) | Hypotensive activity (dose/rat) 30 nmol (Table 3) | Hypotensive activity (dose/rat) 30 nmol (Table 2) | Hypotensive activity (dose/rat) 100 nmol (Table 2) | Hypotensive activity (dose/rat) 10 nmol (Table 2) | also measured |
| --- | --- | --- | --- | --- | --- | --- |
| ATLGSEDTWKPLSNPRNRELFFRSLQAYF-amide [Compound 38] | − | − |  |  |  | Hypotensive activity (dose/rat) 100 nmol (Table 3): ++ (Strong activity (++): A decrease in systolic blood pressure is 20 mmHg or more and less than 30 mmHg, or the time required for recovery is less than 5 minutes.) |
| LFFRRLQAYFK [Compound 18] |  |  | − | ++ (Strong activity (++): A decrease in systolic blood pressure is 20 mmHg or more and less than 30 mmHg, or the time required for recovery is less than 5 minutes.) |  |  |
| LFERRLQAYFKNGAEDESAEAFPLEF-amide (LFERRLQAYFKNGAEDESAEAFPLEF-NH2) [Compound 48] | +++ (Extremely strong activity (+++): A decrease in systolic blood pressure is 30 mmHg or more, and the time required for recovery is 5 minutes or more.) |  |  |  |  |  |
| FFRRLQAYFK-amide (FFRRLQAYFK-NH2) [Compound 20] |  |  | − | − |  |  |
| LFFRRLQAWFK-amide (LFFRRLQAWFK-NH2) [Compound 46] | − | − |  |  |  | Hypotensive activity (dose/rat) 100 nmol (Table 3): + (Activity observed (+): A decrease in systolic blood pressure is less than 20 mmHg.) |
| RRLQAYFK-amide (RRLQAYFK-NH2) [Compound 22] |  |  | − | − |  |  |
| ATVRNEDKWKPLNNPRNRDLFFRRLQAYF [Compound 9] |  |  | − | +++ (Extremely strong activity (+++): A decrease in systolic blood pressure is 30 mmHg or more, and the time required for recovery is 5 minutes or more.) |  |  |
| NRDLFFRRLQAYFKGR [Compound 13] |  |  | − | ++ (Strong activity (++): A decrease in systolic blood pressure is 20 mmHg or more and less than 30 mmHg, or the time required for recovery is less than 5 minutes.) |  |  |
| LFFRRLQAYFKGRGLDLGTFPNPF-amide (LFFRRLQAYFKGRGLDLGTFPNPF-NH2) [Compound 28] |  |  |  |  | +++ (Extremely strong activity (+++): A decrease in systolic blood pressure is 30 mmHg or more, and the time required for recovery is 5 minutes or more.) |  |
| LFFRRLQAYFKGRGLDLGTFPNPFPTNENPR [Compound 29] |  |  |  |  | +++ (Extremely strong activity (+++): A decrease in systolic blood pressure is 30 mmHg or more, and the time required for recovery is 5 minutes or more.) |  |
| NRELFFRRLQAYFK-amide (NRELFFRRLQAYFK-NH2) [Compound 41] | − | ++ (Strong activity (++): A decrease in systolic blood pressure is 20 mmHg or more and less than 30 mmHg, or the time required for recovery is less than 5 minutes.) |  |  |  |  |
| NRDLFFRRLQAYFKGR-amide (NRDLFFRRLQAYFKGR-NH2) [Compound 14] |  |  | ++ (Strong activity (++): A decrease in systolic blood pressure is 20 mmHg or more and less than 30 mmHg, or the time required for recovery is less than 5 minutes.) |  | + (Activity observed (+): A decrease in systolic blood pressure is less than 20 mmHg.) | dose dependence of hypotensive activity: enhanced their hypotensive activity in a dose-dependent manner |
| LFFRRLQAYFKGRGLDLGTFPNPFPTNENPR-amide [Compound 30] | +++ (Extremely strong activity (+++): A decrease in systolic blood pressure is 30 mmHg or more, and the time required for recovery is 5 minutes or more.) |  |  |  | +++ (Extremely strong activity (+++): A decrease in systolic blood pressure is 30 mmHg or more, and the time required for recovery is 5 minutes or more.) |  |
| RLQAYFK-amide (RLQAYFK-NH2) [Compound 23] |  |  | − | − |  |  |
| LFFRRLQALFK-amide (LFFRRLQALFK-NH2) [Compound 44] | − | ++ (Strong activity (++): A decrease in systolic blood pressure is 20 mmHg or more and less than 30 mmHg, or the time required for recovery is less than 5 minutes.) |  |  |  |  |
| LFFRRLQA(Cha)FK-amide (LFFRRLQA[Cha]FK-NH2; N-terminus assumed; SMILES CC(C)C[C@H](NC(=O)[C@H](CCCNC(=N)N)NC(=O)[C@H](CCCNC(=N)N)NC(=O)[C@H](Cc1ccccc1)NC(=O)[C@H](Cc1ccccc1)NC(=O)[C@@H](N)CC(C)C)C(=O)N[C@@H](CCC(N)=O)C(=O)N[C@@H](C)C(=O)N[C@@H](CC1CCCCC1)C(=O)N[C@@H](Cc1ccccc1)C(=O)N[C@@H](CCCCN)C(N)=O) [Compound 45] | + (Activity observed (+): A decrease in systolic blood pressure is less than 20 mmHg.) | +++ (Extremely strong activity (+++): A decrease in systolic blood pressure is 30 mmHg or more, and the time required for recovery is 5 minutes or more.) |  |  |  |  |
| LFFRRLQAHFK-amide (LFFRRLQAHFK-NH2) [Compound 47] | − | − |  |  |  | Hypotensive activity (dose/rat) 100 nmol (Table 3): +++ (Extremely strong activity (+++): A decrease in systolic blood pressure is 30 mmHg or more, and the time required for recovery is 5 minutes or more.) |
| RDLFFRRLQAYFK-amide (RDLFFRRLQAYFK-NH2) [Compound 16] |  |  | ++ (Strong activity (++): A decrease in systolic blood pressure is 20 mmHg or more and less than 30 mmHg, or the time required for recovery is less than 5 minutes.) | +++ (Extremely strong activity (+++): A decrease in systolic blood pressure is 30 mmHg or more, and the time required for recovery is 5 minutes or more.) | − | dose dependence of hypotensive activity: enhanced their hypotensive activity in a dose-dependent manner |
| pyr-EDKWKPLNNPRNRDLFFRRLQAYFK-amide (not fully specified; N-terminal pyroglutamate, C-terminal amide) [Compound 33] |  |  |  |  | ++ (Strong activity (++): A decrease in systolic blood pressure is 20 mmHg or more and less than 30 mmHg, or the time required for recovery is less than 5 minutes.) |  |
